{"source": "patent US5760241A", "about": "“Thiol derivatives with metallopeptidase inhibitory activity” (priority 1996, dated 1998)", "key": {"NEP (SHR kidneys)": {"system": "NEP (SHR kidneys)", "test": "Ex vivo NEP-inhibitory activity in kidneys of treated SHR", "parameters": "species or system spontaneously hypertensive rats (SHR)", "description": "(§1) The ex vivo ACE/NEP-inhibitory activity of the compounds of formula I, in particular, was evaluated by considering the enzymatic activity in tissue homogenates (lung and kidney for the ACE- and NEP-inhibitory activity, respectively) from spontaneously hypertensive rats (SHR), treated with the tested compounds by intravenous or oral route.\na) NEP-inhibitory activity\nThe ex vivo NEP-inhibitory activity was evaluated according to the procedure reported in the literature by M. Orlowsky et al., in Biochemistry 1981, 20, 4942-4950.\nThe inhibitory activity of the compounds of formula I was evaluated in kidneys of spontaneously hypertensive rats (SHR), 5 minutes after i.v. injection (0.6, 0.64 and 21 μmoles/kg) and 30 minutes, 60 minutes and 4 hours after oral administration (30 μmoles/kg) of the tested compounds.\nAfter the removal of the kidneys from SHR, the renal tissue was homogenized and incubated for 15 minutes at 37° C. in the presence of Glutaryl-Ala-Ala-Phe-2-naphthylamide (GAAP), as a substrate, and aminopeptidase M at pH 7.6.\nThe reaction was stopped by adding an aqueous solution at 10% of trichloroacetic acid.\nThe released 2-naphthylamine was determined by adding fast garnet dye (2 ml).\nEnzyme reaction rates were determined by measuring the increase in the optical density at 524 nm (OD524) with respect to a standard obtained with 2-naphthylamine complexed with fast garnet.\nThe NEP-inhibitory activity of the tested compounds was expressed as percentage of NEP-inhibition in SHR kidneys.\n(§2) As an example, the percentages of basal enzymatic activity obtained in the ex vivo tests after the administration of compounds 29 and 41, as representative compounds of formula I, and of the comparison compounds R-1, R-2, R-3 and R-4 are reported in the following table 2."}, "ACE (SHR lungs)": {"system": "ACE (SHR lungs)", "test": "Ex vivo ACE-inhibitory activity in lungs of treated SHR", "parameters": "species or system spontaneously hypertensive rats (SHR)", "description": "as §1\nb) ACE-inhibitory activity\nThe ex vivo ACE-inhibitory activity was evaluated by using a radiometric assay method, as reported in the literature by J. W. Ryan et al. in Biochem. J. (1977), 167, 501-504.\nThe inhibitory activity of the compounds of formula I was evaluated in lungs of spontaneously hypertensive rats (SHR), 5 minutes after i.v. injection (0.6, 0.64 and 21 μmoles/kg) and 30 minutes, 60 minutes and 4 hours after oral administration (30 μmoles/kg) of the tested compounds.\nAfter the removal of the lungs from SHR, the lung tissue was homogenized and incubated for 2 hours at 37° C. in the presence of [^3 H]Hyp-Gly-Gly, as a substrate.\nThe reaction was stopped by adding hydrochloric acid.\nThe released radiolabelled hyppuric acid was extracted with ethyl acetate and counted by liquid scintillation spectrometry, according to conventional methods.\nThe ACE-inhibitory activity of the tested compounds was expressed as percentage of ACE-inhibition in SHR lungs.\nas §2"}}}
{"compound": "O=C(N[C@@H](Cc1ccccc1)C(=O)O)C(CS)Cc1ccc2c(c1)OCO2", "note": "(stereo partly drawn) [R-1, N-[3-mercapto-2-(3,4-methylenedioxyphenyl)methyl-propionyl]-(S)-phenylalanine]", "values": [{"measurement": "NEP-inhibition (kidneys), 30 minutes", "setting": "NEP (SHR kidneys); oral 30 μmoles/kg", "result": 5, "unit": "%"}, {"measurement": "NEP-inhibition (kidneys), 4 hours", "setting": "NEP (SHR kidneys); oral 30 μmoles/kg", "result": "not active"}, {"measurement": "ACE-inhibition (lungs), 30 minutes", "setting": "ACE (SHR lungs); oral 30 μmoles/kg", "result": 25, "unit": "%"}, {"measurement": "ACE-inhibition (lungs), 4 hours", "setting": "ACE (SHR lungs); oral 30 μmoles/kg", "result": 20, "unit": "%"}]}
{"compound": "CC(CS)C(=O)N[C@@H](Cc1c[nH]c2ccccc12)C(=O)O", "note": "(stereo partly drawn) [R-4, N-(3-mercapto-2-methylpropanoyl)-L-triptophan]", "values": [{"measurement": "NEP-inhibition (kidneys), 30 minutes", "setting": "NEP (SHR kidneys); oral 30 μmoles/kg", "result": "not active"}, {"measurement": "NEP-inhibition (kidneys), 4 hours", "setting": "NEP (SHR kidneys); oral 30 μmoles/kg", "result": "not active"}, {"measurement": "ACE-inhibition (lungs), 30 minutes", "setting": "ACE (SHR lungs); oral 30 μmoles/kg", "result": 25, "unit": "%"}, {"measurement": "ACE-inhibition (lungs), 4 hours", "setting": "ACE (SHR lungs); oral 30 μmoles/kg", "result": 10, "unit": "%"}]}
{"compound": "CC(CS)C(=O)N[C@@H](Cc1ccc(O)cc1)C(=O)O", "note": "(stereo partly drawn) [R-3, N-(3-mercapto-2-methylpropanoyl)-L-tyrosine]", "values": [{"measurement": "NEP-inhibition (kidneys), 30 minutes", "setting": "NEP (SHR kidneys); oral 30 μmoles/kg", "result": 10, "unit": "%"}, {"measurement": "NEP-inhibition (kidneys), 4 hours", "setting": "NEP (SHR kidneys); oral 30 μmoles/kg", "result": 5, "unit": "%"}, {"measurement": "ACE-inhibition (lungs), 30 minutes", "setting": "ACE (SHR lungs); oral 30 μmoles/kg", "result": 25, "unit": "%"}, {"measurement": "ACE-inhibition (lungs), 4 hours", "setting": "ACE (SHR lungs); oral 30 μmoles/kg", "result": 20, "unit": "%"}]}
{"compound": "O=C(N[C@@H](Cc1ccc(O)cc1)C(=O)O)C(CS)Cc1ccc2c(c1)OCO2", "note": "(stereo partly drawn) [R-2, N-[3-mercapto-2-(3,4-methylenedioxyphenyl)methyl-propionyl]-(S)-tyrosine]", "values": [{"measurement": "NEP-inhibition (kidneys), 30 minutes", "setting": "NEP (SHR kidneys); oral 30 μmoles/kg", "result": 30, "unit": "%"}, {"measurement": "NEP-inhibition (kidneys), 4 hours", "setting": "NEP (SHR kidneys); oral 30 μmoles/kg", "result": "not active"}, {"measurement": "ACE-inhibition (lungs), 30 minutes", "setting": "ACE (SHR lungs); oral 30 μmoles/kg", "result": 30, "unit": "%"}, {"measurement": "ACE-inhibition (lungs), 4 hours", "setting": "ACE (SHR lungs); oral 30 μmoles/kg", "result": 25, "unit": "%"}]}
{"compound": "O=C(N[C@@H](Cc1ccc(-c2nccs2)cc1)C(=O)O)[C@@H](CS)Cc1ccccc1", "note": "[compound 29, N-[(2S)-3-mercapto-2-phenylmethylpropionyl]-4-(2-thiazolyl)-L-phenylalanine]", "values": [{"measurement": "NEP-inhibition (kidneys), 5 minutes", "setting": "NEP (SHR kidneys); i.v. 0.6 μmoles/kg", "result": 34, "unit": "%"}, {"measurement": "NEP-inhibition (kidneys), 5 minutes", "setting": "NEP (SHR kidneys); i.v. 21 μmoles/kg", "result": 49, "unit": "%"}, {"measurement": "NEP-inhibition (kidneys), 30 minutes", "setting": "NEP (SHR kidneys); oral 30 μmoles/kg", "result": 55, "unit": "%"}, {"measurement": "NEP-inhibition (kidneys), 60 minutes", "setting": "NEP (SHR kidneys); oral 30 μmoles/kg, 60 minutes", "result": 39, "unit": "%"}, {"measurement": "NEP-inhibition (kidneys), 4 hours", "setting": "NEP (SHR kidneys); oral 30 μmoles/kg", "result": 40, "unit": "%"}, {"measurement": "ACE-inhibition (lungs), 5 minutes", "setting": "ACE (SHR lungs); i.v. 0.6 μmoles/kg", "result": 15, "unit": "%"}, {"measurement": "ACE-inhibition (lungs), 5 minutes", "setting": "ACE (SHR lungs); i.v. 21 μmoles/kg", "result": 72, "unit": "%"}, {"measurement": "ACE-inhibition (lungs), 30 minutes", "setting": "ACE (SHR lungs); oral 30 μmoles/kg", "result": 60, "unit": "%"}, {"measurement": "ACE-inhibition (lungs), 60 minutes", "setting": "ACE (SHR lungs); oral 30 μmoles/kg, 60 minutes", "result": 36, "unit": "%"}, {"measurement": "ACE-inhibition (lungs), 4 hours", "setting": "ACE (SHR lungs); oral 30 μmoles/kg", "result": 45, "unit": "%"}]}
